Test results taken from patent US8653086B2, “Naphthamides as anticancer agents” (Oregon Health & Science University, priority 2008, dated 2014).

Tests used:
HeLa cells [1] = experiment: HeLa cell growth inhibition, MTT (Example 2); format: cell-based; settings: Homo sapiens, 72 h, mean ± SD of at least two measurements in duplicates unless noted
Method: (§1) HeLa cells (human cervical cancer cells) were obtained from American Type Culture Collection (ATCC) and maintained in Dulbecco's modified Eagle medium (DMEM, Invitrogen, Carlsbad, Calif.) supplemented with 10% (v/v) fetal calf serum (Sigma, St. Louis, Mo.), 10 μg/mL penicillin and 10 μg/mL streptomycin (Invitrogen, Carlsbad, Calif.) at 37° C. under 5% CO2. HeLa cells (2,000 cells/well) were plated in 96-well plates the day before experiment. On the day of experiment, different concentrations of the drugs (final concentration 10^−8-10^−4 M) in duplicates were added to the cells and the cells were further incubated for 72 h. Then, the number of live cells was quantified by 3-(4,5-dimethyl-2-thiazolyl)-2,5-diphenyl-2H-tetrazolium bromide (MIT reagent, Sigma, St. Louis, Mo.).
(§2) The amount of reduced MTT formazan generated by live cells was determined by its absorbance at 570 nm after subtracting the background absorbance at 690 nm. The percent of cell growth was expressed as (A570(treated)−A570(initial))/(A570(vehicle treated)−A570(initial))×100, where A570(initial) represents initial cell population when drugs are added. The GI50 were derived from non-linear regression analysis of the dose-response curve using Prism 4.0 (GraphPad).

A549 cells [2] = experiment: A549 cell growth inhibition, MTT (Example 2); format: cell-based; settings: Homo sapiens, 72 h, mean ± SD of at least two measurements in duplicates unless noted
Method: as §1
(§3) Following the same procedure, identical experiments were performed using, A549 cells (human lung cancer cells) and MCF-7 cells (human breast cancer cells).
as §2

MCF-7 cells [3] = experiment: MCF-7 cell growth inhibition, MTT (Example 2); format: cell-based; settings: Homo sapiens, MCF7, 72 h, mean ± SD of at least two measurements in duplicates unless noted
Method: as §1, §3, §2

MCF-7 cells [4] = experiment: MCF-7 cancer cell growth inhibition, MTT (Example 6); format: cell-based; settings: Homo sapiens, MCF7, 72-h incubation
Method: (§4) HeLa, A549, and MCF-7 cells, in a 96-well plate (1.0×10^5/well) were treated with different concentrations of the compounds for 72 h. Then the number of cells was quantified by incubating cells with MTT reagent (Sigma, 50 μg/mL) for 3 h. The reduced formazan product was solubilized in DMSO to be measured spectrophotometrically at 570 nm.

A549 cells [5] = experiment: A549 cancer cell growth inhibition, MTT (Example 6); format: cell-based; settings: Homo sapiens, 72-h incubation
Method: as §4

[6] = test system: CREB-mediated gene transcription; experiment: CREB renilla luciferase reporter assay in HEK293T cells; format: cell-based; settings: Homo sapiens, HEK-293T, forskolin 10 μM, read-out: CREB transcription inhibition IC50
Method: HEK293T cells in a 10-cm plate were transfected with pCRE-RLuc (6.0 μg) with Lipofectamine™ 2000 (Invitrogen, Carlsbad, Calif.) according to manufacturer's protocol. After 3 h, the transfected cells were collected and replated into a 96-well plate (4×10^4 cells/well). The cells were allowed to attach to the bottom of the wells for overnight, when compounds of different concentrations were added to the cells. Forskolin (final concentration of 10 μM, Alexis Biochemicals, San Diego, Calif.) was added 30 min after the addition of the compounds. The cells were then incubated at 37° C. for 4.5 h and the media were removed. The cells were then lysed in renilla luciferase lysis buffer (Promega, Madison, Wis.). To measure luciferase activity, five μL of the lysate was combined with 30 μL of coelenterazine (Nanolight, Pinetop, Ariz.) solution in PBS (10 μg/mL). The sample protein concentration was determined by Dye Reagent Concentrate (Bio-Rad, Hercules, Calif.). The luciferase activity was normalized to protein content in each well and expressed as RLU/μg protein.

KIX-KID interaction = target: T1, KIX-KID interaction (Homo sapiens, UniProt Q92793); experiment: In vitro renilla luciferase complementation assay; format: biochemical; settings: 4° C., 24 h, read-out: KIX-KID interaction inhibition IC50
T1 construct: RLucC-KIX (15 ng) and KID-RLucN-containing cell lysates; made in house
T1 sequence (Q92793 587-666 limits assumed): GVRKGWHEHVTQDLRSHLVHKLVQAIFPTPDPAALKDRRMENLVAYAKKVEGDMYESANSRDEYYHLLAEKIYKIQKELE
Method: RLucC-KIX (15 ng) and KID-RLucN-containing cell lysates (0.5 mg) were mixed together in renilla luciferase lysis buffer (Promega, Madison, Wis.) in the presence of different concentrations of compounds. The final volume of the incubation mixture is 30 μL. The mixture was incubated at 4° C. for 24 h. Then renilla luciferase activity was measured by combining 5 μL of incubation mixture with 30 μL of coelenterazine solution in PBS (pH 7.4, 10 μg/mL).

HeLa cells [7] = experiment: HeLa cancer cell growth inhibition, MTT (Example 6); format: cell-based; settings: Homo sapiens, 72-h incubation
Method: as §4

[8] = Maximum tolerated dose in nude mice; format: in vivo; settings: for tolerability: ten days
Method: The maximum tolerated dose (MTD) of compound 4 and compound 7 was evaluated in nude mice.
In this study 7 groups were established, each with three mice per group. 10 μl/g of a mixture of 10 ml of DMSO and 10 ml sterile saline was administered per day to group I, the control group; compound 4 was administered intravenously at dose levels of 10, 25, and 50 mg/kg and a dose volume of 10 μl/g per day to groups 2-4 respectively; and compound 7 was administered intravenously at dose levels of 10, 25, and 50 mg/kg and a dose volume of 10 μl/g per day to groups 5-7 respectively. The study was run for ten days.
Animals were monitored individually up to 7 days after final treatment. Daily general health observations included animal mortality, appearance, spontaneous activity, body posture, and food and water intake. Lesions and any other adverse reactions were recorded.

primary rat neurons = settings: E18 rat neurons, 48 h; naphthols up to 10 μM; CPT positive control
Method: E18 rat neurons were isolated from Sprague-Dawley rats at 18 days after gestation. The isolated neurons were plated into a 6-well plate coated with poly-D-lysine. On day 5 after plating the neurons, different compounds of indicated concentrations were added (in triplicates) and incubated with the neurons for 48 h. Then the neurons were harvested and the number of live neurons was counted with a hemacytometer after staining with trypan blue. Data were presented as mean±SD.
CREB is a pleiotrophic factor involved in many different cellular processes including neuronal survival. The possibility of neuronal cell death might be a concern for CREB inhibitors in the future clinical applications if they could cross the blood brain barrier. Therefore, the toxicity of naphthol AS-E phosphate (i) or its active form, naphthol AS-E (ii), to primary rat neurons was investigated. Isolated E18 rat neurons were treated with increasing concentrations of naphthol AS-E phosphate (i) or naphthol AS-E (ii) for 48 h. […] At the end of the treatment, the neurons were collected and the number of live neurons were counted using trypan blue exclusion assay (FIG. 3).

SMILES | GI50 (HeLa cells [1]) [µM] | GI50 (A549 cells [2]) [µM] | GI50 (MCF-7 cells [3]) [µM] | also measured
NCCCOc1cc(Cl)ccc1NC(=O)c1cc2ccccc2cc1OCCCN [drawing 54] |  |  |  | GI50 (MCF-7 cells [4]): 1.69 ± 0.39 µM; GI50 (A549 cells [5]): 1.84 ± 0.11 µM; IC50 [6]: 22.9 µM; IC50 (KIX-KID interaction): 14.7 µM; GI50 (HeLa cells [7]): 0.71 ± 0.21 µM
COc1cc2ccccc2cc1C(=O)Nc1ccc(Cl)cc1OC(=O)c1cc2ccccc2cc1OC [drawing 55] |  |  |  | GI50 (MCF-7 cells [4]): 3.38 ± 0.49 µM; GI50 (A549 cells [5]): 8.78 ± 2.55 µM; IC50 [6]: 1.14 µM; IC50 (KIX-KID interaction): 0.25 µM; GI50 (HeLa cells [7]): 0.33 ± 0.07 µM
COc1cc2ccccc2cc1C(=O)Nc1ccc(Cl)cc1OC(=O)c1cc2ccccc2cc1OC [drawing 35] | 0.27 ± 0.19 | 5.25 ± 0.75 | 2.96 ± 0.66 | 
O=C(Nc1ccc(Cl)cc1)c1cc2ccccc2cc1O [drawing 53] |  |  |  | GI50 (MCF-7 cells [4]): 2.56 ± 0.45 µM; GI50 (A549 cells [5]): 4.58 ± 1.52 µM; IC50 [6]: 2.2 µM; IC50 (KIX-KID interaction): 2.41 µM; GI50 (HeLa cells [7]): 2.97 ± 0.74 µM
COc1cc2ccccc2cc1C(=O)Oc1cc(Cl)ccc1NC(=O)c1cc2ccccc2cc1OCCCN |  |  |  | GI50 (MCF-7 cells [4]): 29.4 µM; GI50 (A549 cells [5]): 12.9 µM; GI50 (HeLa cells [7]): 3.12 µM
NCCCOc1cc2ccccc2cc1C(=O)Nc1ccc(Cl)cc1 | 1.47 ± 0.42 | 3.42 ± 0.43 | 0.84 ± 0.18 | 
Cl.Cl.NCCCOc1cc(Cl)ccc1NC(=O)c1cc2ccccc2cc1OCCCN [Compound 4, 3-(3-Aminopropoxyl)-N-(2-(3-aminopropoxy)-4-chlorophenyl)-2-naphthamide dihydrochloride] |  |  |  | tolerability ([8]; 10 mg/kg per day intravenously): tolerated very well; tolerability ([8]; 25 mg/kg per day intravenously): tolerated very well; tolerability ([8]; 50 mg/kg per day intravenously): minor toxicity; body weight loss ([8]; 50 mg/kg, two of three animals at day 5 and day 6, recovery from day 7): 10-20%
O=C(Nc1ccc([N+](=O)[O-])cc1)c1cc2ccccc2cc1O | 2.94 ± 0.7 | 3.28 ± 0.31 | 1.5 ± 0.16 | 
NCCCOc1cc2ccccc2cc1C(=O)Nc1ccc(Cl)cc1OC(=O)c1cc2ccccc2cc1OCCCN [Compound 7] |  |  |  | tolerability ([8]; 10 mg/kg per day intravenously): tolerated very well; tolerability ([8]; 25 mg/kg per day intravenously): tolerated very well; local effect at injection site ([8]; 50 mg/kg intravenously): severe irritative effect on tail skin; tolerability ([8]; 50 mg/kg per day intravenously): tolerated very well
NCCCOc1cc(Cl)ccc1NC(=O)c1cc2ccccc2cc1OCCCN [drawing 36] | 0.48 ± 0.35 | 2.57 ± 0.41 | 1.65 ± 0.42 | 
COc1cc2ccccc2cc1C(=O)Nc1ccc(Cl)cc1OC(=O)c1cc2ccccc2cc1OCCCN |  |  |  | GI50 (MCF-7 cells [4]): 19.4 µM; GI50 (A549 cells [5]): 12.9 µM; GI50 (HeLa cells [7]): 2.33 µM
O=C(Nc1ccc(Cl)cc1)c1cc2ccccc2cc1O [drawing 32] | 2.52 ± 0.77 | 2.88 ± 0.35 | 2.76 ± 0.35 | 
COc1cc2ccccc2cc1C(=O)Nc1ccc(Cl)cc1 | 5.2 ± 0.61 | 62 ± 15.5 | 24.8 ± 0.94 | 
O=C(Nc1ccc(Cl)cc1)c1cc2ccccc2cc1OP(=O)(O)O [drawing 33] | 2.53 ± 0.58 | 1.94 | 1.93 | 
CN(C(=O)c1cc2ccccc2cc1O)c1ccc(Cl)cc1 | 12.9 ± 4.34 | 29.5 ± 5.27 | 13.6 ± 4.9 | 
NCCCOc1cc2ccccc2cc1C(=O)Nc1ccc(Cl)cc1OC(=O)c1cc2ccccc2cc1OCCCN [drawing 56] |  |  |  | GI50 (MCF-7 cells [4]): 0.42 ± 0.15 µM; GI50 (A549 cells [5]): 0.59 ± 0.02 µM; IC50 [6]: 2.74 µM; IC50 (KIX-KID interaction): 7.08 µM; GI50 (HeLa cells [7]): 0.29 ± 0.05 µM
CC[C@@]1(O)C(=O)OCc2c1cc1n(c2=O)Cc2cc3ccccc3nc2-1 [CPT, camptothecin] |  |  |  | neuronal cell death (primary rat neurons): killed most of the neurons

Further lines, with some results ahead:

GI50 (HeLa cells [1]) [µM] | GI50 (A549 cells [2]) [µM] | GI50 (MCF-7 cells [3]) [µM] | SMILES | also measured
8.32 ± 0.55 | 85.7 ± 8.74 | 6.55 ± 2.28 | COc1ccc(NC(=O)c2cc3ccccc3cc2O)cc1 | 
2.4 ± 0.36 | 4.15 ± 0.5 | 3.62 ± 2.56 | O=C(Nc1ccc(C(F)(F)F)cc1)c1cc2ccccc2cc1O | 
12.6 ± 12.1 | 32.2 ± 2.88 | 12.7 ± 13.2 | O=C(Nc1cnccn1)c1cc2ccccc2cc1O | 
26.9 | 56.9 ± 7.75 | 4.87 ± 1.27 | O=C(Nc1ccccc1)c1cc2ccccc2cc1O | 
67.2 ± 46.3 | 51.6 ± 11.9 | 28 ± 4.63 | Nc1ccc(NC(=O)c2cc3ccccc3cc2O)cc1 | 
2.44 ± 0.56 | 3.76 ± 0.31 | 5.21 ± 4.92 | O=C(Nc1ccc(F)c(Cl)c1)c1cc2ccccc2cc1O | 
42.3 ± 6.7 | 28.1 | 6.8 ± 6.34 | O=C(Nc1ccc(O)cc1)c1cc2ccccc2cc1O | 
3.74 ± 0.81 | 5.45 ± 0.89 | 9.76 ± 6.31 | O=C(Nc1ccc(I)cc1)c1cc2ccccc2cc1O | 
2.12 ± 0.007 | 3.98 ± 0.65 | 1.83 ± 0.7 | O=C(Nc1ccc(Br)cc1)c1cc2ccccc2cc1O | 
2.06 ± 0.31 | 6.78 ± 1.32 | 2.34 ± 0.51 | O=C(Nc1ccc(F)cc1)c1cc2ccccc2cc1O | 
6.14 ± 3.03 | 25 ± 10.7 | 15.8 ± 5.29 | O=C(Nc1ccncc1)c1cc2ccccc2cc1O | 
2.18 ± 0.17 | 3.57 ± 0.23 | 2.09 ± 0.82 | O=C(Nc1ccc(F)c(F)c1)c1cc2ccccc2cc1O | 
11.5 ± 8.9 | 75.8 ± 23.1 | 6.25 ± 5.89 | O=C(Nc1ccccn1)c1cc2ccccc2cc1O | 
